Laboratory results as given in patent US7727949B2, “Cleaning agent for thermostatic chambers” (Wako Pure Chemical Industries, Ltd., priority 2005, dated 2010).

Legend:
Type in all cases: cell-based
[1] = tested on: Aspergillus niger (NBRC6341); assay: Study of antimicrobial activity (MIC, agar plate medium)
Method: (§1) In a sterilized petri dish having a diameter of 90 mm, an aqueous solution which was obtained by diluting each of agents with distilled water such that a concentration of the agent become each predetermined concentrations when the solution is prepared to a total volume of 20 mL, and then sterilized water was added into the petri dish such that a total volume of sterilized water and the agent aqueous solution become 2 mL. Further, 18 mL of nutrient agar medium, which was sterilized with high pressure steam and preserved at 50° C.±2° C., was added into the petri dish, and it was solidified to obtain an agar plate medium.
(§2) The individual test microorganism, which was preliminarily cultured in bouillon medium in advance until 1×10^8 microorganisms/mL, was diluted with sterilized physiological saline for 100 times (to 1×10^6 microorganisms/mL). Next, prepared solution of the test microorganism was smeared with a platinum loop on the surface of the agar plate medium prepared in (2), and the medium was cultured at 35° C.±2° C., for 24 hours.
(§3) After the cultivation, confirming the presence or not of growth of the microorganism on the surface of the medium was conducted, a minimum concentration of the agent, where growth of the microorganisms cannot be recognized, was determined as the minimum inhibitory concentration (MIC, μg/mL) of the agent.

[2] = tested on: Cladosporium cladosporioides (NBRC6348); assay: as above
Method: as §1, §2, §3

[3] = tested on: Trichoderma viride (NBRC31831); assay: as above
Method: as §1, §2, §3

[4] = tested on: Bacillus subtilis (NBRC13719); assay: as above
Method: as §1, §2, §3

[5] = tested on: Chaetomium globosum (NBRC6347); assay: as above
Method: as §1, §2, §3

[6] = tested on: Staphylococcus aureus (NBRC12732); assay: as above
Method: as §1, §2, §3

[7] = tested on: Penicillium citrinum (NBRC6352); assay: as above
Method: as §1, §2, §3

[8] = tested on: Pseudonas aeruginosa (NBRC12689); assay: as above
Method: as §1, §2, §3

[9] = tested on: Escherichia coli (NBRC3972); assay: as above
Method: as §1, §2, §3

[10] = tested on: Bacillus subtilis (NBRC13719); assay: Study of antimicrobial activity in the presence of proteins (MIC)
Method: (§4) GOT (glutamic-oxaloacetic transaminase) solution: GOT Substrate-Enzyme solution and GOT-2α•KG solution which were components of L type Wako GOT•J2 kit (produced by Wako Pure Chemical Industries, Ltd.) were prepared with distilled water so as to become a 0.2 w/w % aqueous solution.
(§5) GPT (glutamic-pyruvic transaminase) solution: GOT Substrate-Enzyme solution and GOT•2α-KG solution which were components of L type Wako GPT•J2 kit (produced by Wako Pure Chemical Industries, Ltd.) were prepared with distilled water so as to become a 0.2 w/w % aqueous solution.
(§6) Serum: Control Serum II Wako (produced by Wako Pure Chemical Industries, Ltd.) was prepared with distilled water so as to become a 0.2 w/w % aqueous solution with distilled water.
as §1, with “distilled water was added such that” for “distilled water such that”, “mL, and the agent aqueous solution and a reagent solution such that a final concentration of each of components (GOT, GPT, and serum) in the reagent become 100 μg/mL when the solution is prepared to a total volume of 20 mL. And then, sterilized water” for “mL, and then sterilized water”, “plate medium. Furthermore, as a reference, agar plate medium obtained by using pure water instead of the agent solution was also prepared.” for “plate medium.”
(§7) The individual test microorganisms, which was preliminarily cultured in bouillon medium in advance until 1×10^8 microorganisms/mL, was diluted with sterilized physiological saline for 100 times (to 1×10^6 microorganisms/mL). Next, the prepared solution of the test microorganisms was smeared with a platinum loop on the surface of the agar plate medium prepared in (2), and the medium was cultured at 35° C.±2° C. for 24 hours.
(§8) After the cultivation, confirming the presence or not of the growth of the microorganism on the surface of the medium was conducted, a minimum concentration of the agent, where growth of the microorganisms cannot be recognized, was determine as the minimum inhibitory concentration (MIC, μg/mL) of the agent.

[11] = tested on: Staphylococcus aureus (NBRC12732); assay: as above
Method: as §4, §5, §6
as §1, with “distilled water was added such that” for “distilled water such that”, “mL, and the agent aqueous solution and a reagent solution such that a final concentration of each of components (GOT, GPT, and serum) in the reagent become 100 μg/mL when the solution is prepared to a total volume of 20 mL. And then, sterilized water” for “mL, and then sterilized water”, “plate medium. Furthermore, as a reference, agar plate medium obtained by using pure water instead of the agent solution was also prepared.” for “plate medium.”
as §7, §8

[12] = tested on: Pseudonas aeruginosa (NBRC12689); assay: as above
Method: as §4, §5, §6
as §1, with “distilled water was added such that” for “distilled water such that”, “mL, and the agent aqueous solution and a reagent solution such that a final concentration of each of components (GOT, GPT, and serum) in the reagent become 100 μg/mL when the solution is prepared to a total volume of 20 mL. And then, sterilized water” for “mL, and then sterilized water”, “plate medium. Furthermore, as a reference, agar plate medium obtained by using pure water instead of the agent solution was also prepared.” for “plate medium.”
as §7, §8

[13] = tested on: Escherichia coli (NBRC3972); assay: as above
Method: as §4, §5, §6
as §1, with “distilled water was added such that” for “distilled water such that”, “mL, and the agent aqueous solution and a reagent solution such that a final concentration of each of components (GOT, GPT, and serum) in the reagent become 100 μg/mL when the solution is prepared to a total volume of 20 mL. And then, sterilized water” for “mL, and then sterilized water”, “plate medium. Furthermore, as a reference, agar plate medium obtained by using pure water instead of the agent solution was also prepared.” for “plate medium.”
as §7, §8

| Compound | Minimum Inhibitory Concentration A.n [1] | Minimum Inhibitory Concentration Cl.cl [2] [µg/mL] | Minimum Inhibitory Concentration T.v [3] [µg/mL] | Minimum Inhibitory Concentration B.s [4] [µg/mL] | Minimum Inhibitory Concentration C.g [5] [µg/mL] | Minimum Inhibitory Concentration S.a [6] [µg/mL] | Minimum Inhibitory Concentration P.c [7] [µg/mL] | Minimum Inhibitory Concentration P.a [8] [µg/mL] | Minimum Inhibitory Concentration E.c [9] [µg/mL] | Minimum Inhibitory Concentration B.s ([10]; GOT 100 μg/mL) [µg/mL] | Minimum Inhibitory Concentration B.s ([10]; GPT 100 μg/mL) [µg/mL] | Minimum Inhibitory Concentration B.s ([10]; Pure Water) [µg/mL] | Minimum Inhibitory Concentration B.s ([10]; Serum 100 μg/mL) [µg/mL] | Minimum Inhibitory Concentration S.a ([11]; GOT 100 μg/mL) [µg/mL] | Minimum Inhibitory Concentration S.a ([11]; GPT 100 μg/mL) [µg/mL] | Minimum Inhibitory Concentration S.a ([11]; Pure Water) [µg/mL] | Minimum Inhibitory Concentration S.a ([11]; Serum 100 μg/mL) [µg/mL] | Minimum Inhibitory Concentration P.a ([12]; GOT 100 μg/mL) [µg/mL] | Minimum Inhibitory Concentration P.a ([12]; GPT 100 μg/mL) [µg/mL] | Minimum Inhibitory Concentration P.a ([12]; Pure Water) [µg/mL] | other results |
| --- | --- | --- | --- | --- | --- | --- | --- | --- | --- | --- | --- | --- | --- | --- | --- | --- | --- | --- | --- | --- | --- |
| benzalkonium chloride [BC, reference compound] | 1,600 μg/mL | 200 | 400 | <1.563 | 400 | 6.25 | 800 | 800 | 100 | 10 | 10 | 10 | 10 | <1 | 50 | <1 | <1 | >200 | >200 | >200 | Minimum Inhibitory Concentration P.a ([12]; Serum 100 μg/mL): >200 µg/mL; Minimum Inhibitory Concentration E.c ([13]; GOT 100 μg/mL): 200 µg/mL; Minimum Inhibitory Concentration E.c ([13]; GPT 100 μg/mL): 200 µg/mL; Minimum Inhibitory Concentration E.c ([13]; Pure Water): 100 µg/mL; Minimum Inhibitory Concentration E.c ([13]; Serum 100 μg/mL): 200 µg/mL |
| Didecyldimethylammonium adipate [DDAA] | 400 µg/mL | 100 | 200 | <1.563 | 200 | <1.563 | 400 | 400 | 100 | <1 | <1 | <1 | <1 | <1 | <1 | <1 | <1 | 200 | 200 | 200 | Minimum Inhibitory Concentration P.a ([12]; Serum 100 μg/mL): 200 µg/mL; Minimum Inhibitory Concentration E.c ([13]; GOT 100 μg/mL): 50 µg/mL; Minimum Inhibitory Concentration E.c ([13]; GPT 100 μg/mL): 50 µg/mL; Minimum Inhibitory Concentration E.c ([13]; Pure Water): 50 µg/mL; Minimum Inhibitory Concentration E.c ([13]; Serum 100 μg/mL): 50 µg/mL |
| CCCCCCCCCCCCN(CCCN)CCCN [TAA, N-bis(3-aminopropyl)dodecylamine] | 200 µg/mL | 25 | 50 | 3.125 | 100 | 3.125 | 200 | 100 | 50 | 10 | 10 | 10 | 10 | 10 | 10 | 10 | 10 | 100 | 100 | 10 | Minimum Inhibitory Concentration P.a ([12]; Serum 100 μg/mL): 100 µg/mL; Minimum Inhibitory Concentration E.c ([13]; GOT 100 μg/mL): 50 µg/mL; Minimum Inhibitory Concentration E.c ([13]; GPT 100 μg/mL): 50 µg/mL; Minimum Inhibitory Concentration E.c ([13]; Pure Water): 50 µg/mL; Minimum Inhibitory Concentration E.c ([13]; Serum 100 μg/mL): 50 µg/mL |
